Results published in patent publication US11685747B2, “Compounds that inhibit MCL-1 protein” (AMGEN INC., priority 2014, dated 2023).

Tests used:
recombinant human Mcl-1 = molecular target: T1, recombinant human Mcl-1 (Homo sapiens, UniProt Q07820); experiment: Cell free Mcl-1:Bim affinity assay (Mcl-1 HTRF, TR-FRET); assay type: binding; conditions: inhibition of Mcl-1/Bim interaction
T1 construct: C-terminally 6×His tagged Mcl-1 containing residues 171-327; made in house
Procedure: Cell Free Mcl-1:Bim Affinity Assay (Mcl-1 HTRF)
The inhibition of the Mcl-1/Bim interaction was measured using a time-resolved fluorescence resonance energy transfer (TR-FRET) assay. […] A biotinylated peptide derived from human Bim (residues 51-76) was purchased from CPC Scientific (San Jose, Calif.). The TR-FRET assay was conducted in a 384-well white OptiPlate™ (PerkinElmer, Waltham, Mass.) in a total volume of 40 μL. […] The reaction plates were further incubated overnight and then were read on an Envision® multimode reader (PerkinElmer). […] The IC50 values of test compounds were determined from duplicate data by analyzing competition curves using a four-parameter sigmoidal model in GraphPad Prism (GraphPad Software, San Diego, Calif.) or in Genedata Screener® (Genedata, Basel, Switzerland).

[1] = molecular target: T2, Mcl-1/Bak protein-protein interactions (Homo sapiens, UniProt Q07820); experiment: Cell-based split luciferase complementation assay; conditions: HEK 293 M cells, serum-free, 4 h
T2 construct: expressed in transfected cells; host or cells: HEK 293 M cells, transient transfection
Procedure: Cell-Based Assay (Split Luciferase)
A split luciferase complementation assay was developed to determine the inhibition of Mcl-1/Bak protein-protein interactions in cells. […] Transient transfection was performed using Lipofectamine® LTX/Plus™ reagent (Life Technologies, Grand Island, N.Y.). 24 h after transfection, cells were collected using non-enzyme based cell dissociation buffer StemPro® Accutase® (Life Technologies), and resuspended in serum-free Opti-MEM® (Life Technologies). Cells were then seeded into assay plates with serially diluted test compounds in 0.3% DMSO at density of a 5000 cells/well. Cells were then incubated for 4 h at 37° C. in a cell culture incubator supplement with 5% CO2. Test plates were equilibrated to room temperate for 30 min before addition of 30 μL Steady-Glo® Luciferase assay reagent (Promega, Madison, Wis.) into each test well. Luminescence was determined using an EnVision® Multilabel plate reader 25 min after the addition of detection reagent. IC50 values were then calculated with Xlfit using a logistical 4-parameter fit model in GraphPad Prism (GraphPad Software, San Diego, Calif.) or in Genedata Screener® (Genedata, Basel, Switzerland).

OPM-2 = experiment: Cell viability assay (OPM-2 10 FBS, CellTiter-Glo); assay type: cell-based, human; conditions: OPM-2 cells
Procedure: Cell Viability Assay (OPM-2 10 FBS)
Cells were seeded into 384-well plates at 3000 cells/well density in complete growth medium containing 10% FBS, and incubated for 16 h with serially diluted test compounds in a 37° C. incubator with 5% CO2. Cell viability was tested using CellTiter-Glo® assay (Promega, Madison, Wis.) according to the manufacturer recommendations. Luminescence was determined using an EnVision® Multilabel plate reader 25 min after the addition of detection reagent. IC50 values were then calculated with Xlfit using a logistical 4-parameter fit model in GraphPad Prism (GraphPad Software, San Diego, Calif.) or in Genedata Screener® (Genedata, Basel, Switzerland).

T1 sequence (Q07820 171-327): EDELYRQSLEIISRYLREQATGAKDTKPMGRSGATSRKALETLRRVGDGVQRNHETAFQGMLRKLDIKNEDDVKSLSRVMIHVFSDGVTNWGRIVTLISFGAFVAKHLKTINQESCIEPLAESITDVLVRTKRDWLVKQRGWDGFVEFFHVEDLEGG
T2 sequence (Q07820 whole entry): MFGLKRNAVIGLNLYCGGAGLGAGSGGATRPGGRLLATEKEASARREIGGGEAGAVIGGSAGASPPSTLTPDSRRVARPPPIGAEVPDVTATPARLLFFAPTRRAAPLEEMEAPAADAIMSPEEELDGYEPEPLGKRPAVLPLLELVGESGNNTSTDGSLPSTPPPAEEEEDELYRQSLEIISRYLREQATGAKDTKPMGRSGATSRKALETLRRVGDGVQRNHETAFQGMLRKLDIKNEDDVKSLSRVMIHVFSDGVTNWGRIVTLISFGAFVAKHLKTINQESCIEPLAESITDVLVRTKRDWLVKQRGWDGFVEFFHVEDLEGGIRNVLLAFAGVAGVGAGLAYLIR

Row | SMILES | IC50 (recombinant human Mcl-1) [µM] | IC50 [1] [µM] | IC50 (OPM-2; 16 h) [µM] | IC50 (OPM-2; Homo sapiens, OPM-2, 16 h) [µM] | IC50 (OPM-2; Homo sapiens, 16 h) [µM]
1 | CO[C@H]1/C=C/CCCS(=O)(=O)NC(=O)c2ccc3c(c2)N(C[C@@H]2CC[C@H]21)C[C@@]1(CCCc2cc(Cl)ccc21)CO3 [Example 9, (1S,3′R,6′R,7′S,8′E)-6-Chloro-7′-Methoxy-3,4-Dihydro-2H,15′H-Spiro[Naphthalene-1,22′-[20]Oxa[13]Thia[1,14]Diazatetracyclo[14.7.2.0^3,6.0^19,24]Pentacos A[8,16,18,24]Tetraen]-15′-One 13′,13′-Dioxide] | 0.00124 | 0.127 | – | 1.2 | –
2 | CC[C@H]1CC/C=C/[C@H](O)[C@@H]2CC[C@H]2CN2C[C@@]3(CCCc4cc(Cl)ccc43)COc3ccc(cc32)C(=O)NS1(=O)=O (single isomer, unassigned) [Example 19] | – | – | – | 3.99 | –
3 | O=C1NS(=O)(=O)CCCCC[C@H](O)[C@@H]2CC[C@H]2CN2C[C@@]3(CCCc4cc(Cl)ccc43)COc3ccc1cc32 [Example 10, (1S,3′R,6′R,7′S)-6-Chloro-7′-Hydroxy-3,4-Dihydro-2H,15′Hspiro[Naphthalene-1,22′[20]Oxa[13]Thia[1,14]Diazatetracyclo[14.7.2.0^3,6.0^19,24]Penta Cosa[16,18,24]Trien]-15′-One 13′,13′-Dioxide] | 0.00118 | 0.232 | – | 9.41 | –
4 | COCCO[C@H]1/C=C/C[C@H](C)CS(=O)(=O)NC(=O)c2ccc3c(c2)N(C[C@@H]2CC[C@H]21)C[C@@]1(CCCc2cc(Cl)ccc21)CO3 (single isomer, unassigned) [Example 78] | 0.00267 | 0.42 | 2.74 | – | –
5 | CO[C@H]1/C=C\C[C@H](C)[C@@H](C)S(=O)(=O)NC(=O)c2ccc3c(c2)N(C[C@@H]2CC[C@H]21)C[C@@]1(CCCc2cc(Cl)ccc21)CO3 [Example 5, (1S,3′R,6′R,7′S,8′Z,11′S,12′R)-6-Chloro-7′-Methoxy-11′,12′-Dimethyl-3,4-Dihydro-2H,15′H-Spiro[Naphthalene-1,22′-[20]Oxa[13]Thia[1,14]Diazatetracyclo[14.7.2.0^3,6.0^19,24]Pentacos A[8,16,18,24]Tetraen]-15′-One 13′,13′-Dioxide] | – | – | – | 1.14 | –
6 | CC[C@@H]1CC/C=C/[C@H](O)[C@@H]2CC[C@H]2CN2C[C@@]3(CCCc4cc(Cl)ccc43)COc3ccc(cc32)C(=O)NS1(=O)=O (single isomer, unassigned) [Example 17] | – | – | – | 0.26 | –
7 | CO[C@H]1/C=C/C[C@H](C)[C@@H](C)S(=O)(=O)NC(=O)c2ccc3c(c2)N(C[C@@H]2CC[C@H]21)C[C@@]1(CCCc2cc(Cl)ccc21)CO3 [Example 4, (1S,3′R,6′R,7′S,8′E,11′S,12′R)-6-Chloro-7′-Methoxy-11′,12′-Dimethyl-3,4-Dihydro-2H,15′H-Spiro[Naphthalene-1,22′-[20]Oxa[13]Thia[1,14]Diazatetracyclo[14.7.2.0^3,6.0^19,24]Pentacos A[8,16,18,24]Tetraen]-15′-One-13′, 13′-Dioxide] | – | – | – | – | 0.236
8 | CC1(C)CCCC[C@H](O)[C@@H]2CC[C@H]2CN2C[C@@]3(CCCc4cc(Cl)ccc43)COc3ccc(cc32)C(=O)NS1(=O)=O [Example 42] | 0.00755 | 0.85 | – | – | –
9 | CC[C@@H]1CC/C=C\[C@H](O)[C@@H]2CC[C@H]2CN2C[C@@]3(CCCc4cc(Cl)ccc43)COc3ccc(cc32)C(=O)NS1(=O)=O (single isomer, unassigned) [Example 18] | – | – | – | 0.694 | –

Second part, led by results:

Row | IC50 (recombinant human Mcl-1) [µM] | IC50 [1] [µM] | SMILES | IC50 (OPM-2; 16 h) [µM] | IC50 (OPM-2; Homo sapiens, OPM-2, 16 h) [µM] | IC50 (OPM-2; Homo sapiens, 16 h) [µM]
10 | 0.000501 | 0.0164 | CCC[C@@H]1[C@@H](C)C/C=C/[C@H](O)[C@@H]2CC[C@H]2CN2C[C@@]3(CCCc4cc(Cl)ccc43)COc3ccc(cc32)C(=O)NS1(=O)=O (single isomer, unassigned) [Example 68] | 0.179 | – | –
11 | 0.00212 | 0.224 | CC(C)C[C@@H]1[C@@H](C)C/C=C/[C@H](O)[C@@H]2CC[C@H]2CN2C[C@@]3(CCCc4cc(Cl)ccc43)COc3ccc(cc32)C(=O)NS1(=O)=O (single isomer, unassigned) [Example 66] | 2.33 | – | –
12 | 0.000289 | 0.0319 | C[C@H]1C/C=C/[C@H](O)[C@@H]2CC[C@H]2CN2C[C@@]3(CCCc4cc(Cl)ccc43)COc3ccc(cc32)C(=O)NS(=O)(=O)[C@@H]1C1CCC1 (single isomer, unassigned) [Example 56] | 0.208 | – | –
13 | 0.00368 | 0.372 | CC[C@H]1CCCC[C@H](O)[C@@H]2CC[C@H]2CN2C[C@@]3(CCCc4cc(Cl)ccc43)COc3ccc(cc32)C(=O)NS1(=O)=O [Example 23, (1S,3′R,6′R,7′S,12′S)-6-Chloro-12′-Ethyl-7′-Hydroxy-3,4-Dihydro-2H,15′H-Spiro[Naphthalene-1,22′-[20]Oxa[13]Thia[1,14]Diazatetracyclo[14.7.2.0^3,6.0^19,24]Pentacos A[16,18,24]Trien]-15′-One 13′,13′-Dioxide] | – | – | –
14 | 0.00101 | 0.233 | CC(C)[C@@H]1[C@H](C)C/C=C/[C@H](O)[C@@H]2CC[C@H]2CN2C[C@@]3(CCCc4cc(Cl)ccc43)COc3ccc(cc32)C(=O)NS1(=O)=O (single isomer, unassigned) [Example 50] | 1.32 | – | –
15 | 0.00222 | 0.273 | COCCO[C@H]1/C=C/C[C@H](C)[C@@H](C)S(=O)(=O)NC(=O)c2ccc3c(c2)N(C[C@@H]2CC[C@H]21)C[C@@]1(CCCc2cc(Cl)ccc21)CO3 [Example 74, (1S,3′R,6′R,7′S,8′E,11′S,12′R)-6-Chloro-7′-(2-Methoxyethoxy)-11′,12′-Dimethyl-3,4-Dihydro-2H,15′H-Spiro[Naphthalene-1,22′-[20]Oxa[13]Thia[1,14]Diazatetracyclo[14.7.2.0^3,6.0^19,24]Pentacosa[8,16,18,24]Tetraen]-15′-One-13′, 13′-Dioxide] | – | 1.74 | –
16 | 0.000543 | 0.0779 | CC[C@@H]1[C@@H](C)C/C=C/[C@H](OC)[C@@H]2CC[C@H]2CN2C[C@@]3(CCCc4cc(Cl)ccc43)COc3ccc(cc32)C(=O)NS1(=O)=O [Example 25, (1S,3′R,6′R,7′S,8′E,11′S,12′R)-6-Chloro-12′-Ethyl-7′-Methoxy-11′-Methyl-3,4-Dihydro-2H,15′H-Spiro[Naphthalene-1,22′-[20]Oxa[13]Thia[1,14]Diazatetracyclo[14.7.2.0^3,6.0^19,24]Pentacosa[8,16,18,24]Tetraen]-15′-One 13′,13′-Dioxide] | – | 0.405 | –
17 | – | 0.667 | C[C@H]1CCC[C@H](O)[C@@H]2CC[C@H]2CN2C[C@@]3(CCCc4cc(Cl)ccc43)COc3ccc(cc32)C(=O)NS(=O)(=O)[C@H]1C [Example 37, (1S,3′R,6′R,7′S,11′S,12′S)-6-Chloro-7′-Hydroxy-11,12′-Dimethyl-3,4-Dihydro-2H,15′H-Spiro[Naphthalene-1,22′-[20]Oxa[13]Thia[1,14]Diazatetracyclo[14.7.2.0^3,6.0^19,24]Pentacos A[16,18,24]Trien]-15′-One 13′,13′-Dioxide] | – | 5.74 | –
18 | 0.00866 | 0.425 | CCC[C@@H]1[C@@H](C)C/C=C/[C@H](O)[C@@H]2CC[C@H]2CN2C[C@@]3(CCCc4cc(Cl)ccc43)COc3ccc(cc32)C(=O)NS1(=O)=O (single isomer, unassigned) [Example 69] | 2.71 | – | –
19 | 0.00551 | 0.455 | C[C@H]1C/C=C/[C@H](O)[C@@H]2CC[C@H]2CN2C[C@@]3(CCCc4cc(Cl)ccc43)COc3ccc(cc32)C(=O)NS(=O)(=O)[C@@H]1C1CC1 (single isomer, unassigned) [Example 45] | 20 | – | –
20 | – | 1.04 | C[C@H]1CCC[C@H](O)[C@@H]2CC[C@H]2CN2C[C@@]3(CCCc4cc(Cl)ccc43)COc3ccc(cc32)C(=O)NS(=O)(=O)C1 (single isomer, unassigned) [Example 38] | – | – | –
21 | 0.0107 | – | C[C@@H]1CCC[C@H](O)[C@@H]2CC[C@H]2CN2C[C@@]3(CCCc4cc(Cl)ccc43)COc3ccc(cc32)C(=O)NS(=O)(=O)C1 (single isomer, unassigned) [Example 39] | – | – | –
22 | 0.0445 | 1.5 | C[C@@H]1CCC[C@H](O)[C@@H]2CC[C@H]2CN2C[C@@]3(CCCc4cc(Cl)ccc43)COc3ccc(cc32)C(=O)NS(=O)(=O)[C@H]1C (single isomer, unassigned) [Example 36] | – | – | –
